Laboratory results reported in patent US12121522B2, “Methods of treating cancer with an mTOR inhibitor” (Revolution Medicines, Inc., priority 2022, dated 2024).

Tests used:
[1] = system: mucositis/stomatitis; assay: Mouthwash prophylaxis of mucositis in patients on RMC-5552; assay type: in vivo, human; details: RMC-5552 8 to 12 mg IV weekly; without TM N=20, with TM N=7
Method: Table 9 presents data from all patients (N=27) treated either with dexamethasone mouthwash alone, or dexamethasone mouthwash plus tacrolimus mouthwash at 8 mg (N=16), 10 mg (N=8), and 12 mg (N=3) IV QW. Median time on treatment (min, max) was 2.6 months for patients treated at 8 mg IV QW with dexamethasone mouthwash alone (N=13), 1.2 months for patients treated at 8 mg IV QW with dexamethasone mouthwash plus tacrolimus mouthwash (N=3), 0.9 months for patients treated at 10 mg IV QW with dexamethasone mouthwash alone (N=5), 2.0 months for patients treated at 10 mg IV QW with dexamethasone mouthwash plus tacrolimus mouthwash (N=3), 9.1 months for patients treated at 12 mg IV QW with dexamethasone mouthwash alone (N=2), and 0.4 months for patients treated at 12 mg IV QW with dexamethasone mouthwash plus tacrolimus mouthwash (N=1). […] Among all dose levels, the frequency of Grade 3 or worse events, frequency and severity of mucositis, and frequency of AEs leading to dose modification were lower in those patients treated with tacrolimus mouthwash.
Subjects received dexamethasone alone or dexamethasone plus tacrolimus mouthwash(es). […] At baseline (C1D1 predose), subjects rinse with the mouthwash(es) once at least 15 minutes prior to the first dose of study intervention. […]

[2] = Clinical plasma PK, study RMC-5552-001; assay type: in vivo, human
Text: The plasma PK of RMC-5552 in subjects was characterized after single- and repeat-dose administration via IV infusion. […] Sparse PK samples were collected on other visit days as indicated in the clinical study protocol, including End of Infusion (EOI) samples on Cycle 1 Day 8 (C1D8), Cycle 2 Day 1 (C2D1), Cycle 3 Day 1 (C3D1), and Cycle 4 Day 1 ([…]) to approximate maximum concentration (Cmax). The plasma PK of RMC-5552 in subjects was characterized after single- and repeat dose administration via intravenous (IV) infusion. […] Sparse PK samples were collected on other visit days as indicated in the clinical study protocol, including EOI samples on C1D8, C2D1, C3D1, and […] to approximate Cmax. […] AUC0-last value was not calculated on C1D8, C2D1, C3D1, or […] due to limited PK time points (pre-dose and EOI).

CO[C@H]1C[C@@H]2CC[C@@H](C)[C@@](O)(O2)C(=O)C(=O)N2CCCC[C@H]2C(=O)O[C@H]([C@H](C)C[C@@H]2CC[C@@H](OC(=O)NCCOCCOCCOCCOCCOCCOCCOCCOCCC(=O)N3CCc4cc(Cn5nc(-c6ccc7oc(N)nc7c6)c6c(N)ncnc65)ccc4C3)[C@H](OC)C2)C[C@@H](O)[C@H](C)/C=C(\C)[C@@H](O)[C@@H](OC)C(=O)[C@H](C)C[C@H](C)/C=C/C=C/C=C/1C [RMC-5552]
rate of grade 3 mucositis/stomatitis [1]: 15%
rate of mucositis/stomatitis [1]: 75%
Mean Accumulation Ratio (AUC0-last on D15/D1) ([2]; 1.6 mg): 2.4
Cmax ([2]; 1.6 mg 1-h IV inf, C1D1): 21.6 nM
Mean AUC0-last ([2]; 1.6 mg, C1D1): 0.0297 µM·h
Mean Dose Normalized AUC0-last ([2]; 1.6 mg, C1D1): 18.6 nM·h/mg
Mean Unbound AUC0-last ([2]; 1.6 mg, C1D1): 0.0017 µM·h
Mean Unbound Cmax ([2]; 1.6 mg, C1D1): 1.2 nM
Cmax ([2]; 1.6 mg, C1D15): 35.3 nM
Mean AUC0-last ([2]; 1.6 mg, C1D15): 0.0555 µM·h
Mean Dose Normalized AUC0-last ([2]; 1.6 mg, C1D15): 34.7 nM·h/mg
Mean Unbound AUC0-last ([2]; 1.6 mg, C1D15): 0.0032 µM·h
Mean Unbound Cmax ([2]; 1.6 mg, C1D15): 2.0 nM
Cmax ([2]; 1.6 mg, C2D1 (EOI)): 24.7 nM
Mean Unbound Cmax ([2]; 1.6 mg, C2D1 (EOI)): 1.4 nM
Mean Accumulation Ratio (AUC0-last on D15/D1) ([2]; 3 mg): 2.1
Cmax ([2]; 3 mg 1-h IV inf, C1D1): 32 nM
Mean AUC0-last ([2]; 3 mg, C1D1): 0.0439 µM·h
Mean Dose Normalized AUC0-last ([2]; 3 mg, C1D1): 14.6 nM·h/mg
Mean Unbound AUC0-last ([2]; 3 mg, C1D1): 0.0025 µM·h
Mean Unbound Cmax ([2]; 3 mg, C1D1): 1.8 nM
Cmax ([2]; 3 mg, C1D15): 67.5 nM
Mean AUC0-last ([2]; 3 mg, C1D15): 0.0875 µM·h
Mean Dose Normalized AUC0-last ([2]; 3 mg, C1D15): 29.2 nM·h/mg
Mean Unbound AUC0-last ([2]; 3 mg, C1D15): 0.005 µM·h
Mean Unbound Cmax ([2]; 3 mg, C1D15): 3.8 nM
Cmax ([2]; 3 mg, C2D1 (EOI)): 74.2 nM
Mean Unbound Cmax ([2]; 3 mg, C2D1 (EOI)): 4.2 nM
Mean Accumulation Ratio (AUC0-last on D15/D1) ([2]; 6 mg): 1.6
Cmax ([2]; 6 mg 1-h IV inf, C1D1): 101 nM
Mean AUC0-last ([2]; 6 mg, C1D1): 0.137 µM·h
Mean Dose Normalized AUC0-last ([2]; 6 mg, C1D1): 22.1 nM·h/mg
Mean Unbound AUC0-last ([2]; 6 mg, C1D1): 0.0078 µM·h
Mean Unbound Cmax ([2]; 6 mg, C1D1): 5.8 nM
Mean t1/2 ([2]; 6 mg, C1D1): 8.1 h
Unbound AUC0-last (Table 3) ([2]; 6 mg, C1D1): 0.0078 µM·h
Unbound Cmax (Table 3) ([2]; 6 mg, C1D1): 5.6 nM
Cmax ([2]; 6 mg, C1D8 (EOI)): 150 nM
Mean Unbound Cmax ([2]; 6 mg, C1D8 (EOI)): 8.5 nM
Cmax ([2]; 6 mg, C1D15): 155 nM
Mean AUC0-last ([2]; 6 mg, C1D15): 0.219 µM·h
Mean Dose Normalized AUC0-last ([2]; 6 mg, C1D15): 36.6 nM·h/mg
Mean Unbound AUC0-last ([2]; 6 mg, C1D15): 0.0125 µM·h
Mean Unbound Cmax ([2]; 6 mg, C1D15): 8.9 nM
Mean t1/2 ([2]; 6 mg, C1D15): 8.2 h
Unbound AUC0-last (Table 3) ([2]; 6 mg, C1D15): 0.0121 µM·h
Unbound Cmax (Table 3) ([2]; 6 mg, C1D15): 8.7 nM
Cmax ([2]; 6 mg, C2D1 (EOI)): 159 nM
Mean Unbound Cmax ([2]; 6 mg, C2D1 (EOI)): 9.1 nM
Cmax ([2]; 6 mg, C3D1 (EOI)): 187 nM
Mean Unbound Cmax ([2]; 6 mg, C3D1 (EOI)): 10.7 nM
Cmax ([2]; 6 mg, C4D1 (EOI)): 220 nM
Mean Unbound Cmax ([2]; 6 mg, C4D1 (EOI)): 12.5 nM
Mean Accumulation Ratio (AUC0-last on D15/D1) ([2]; 8 mg): 2.6
Cmax ([2]; 8 mg 1-h IV inf, C1D1): 152 nM
Mean AUC0-last ([2]; 8 mg, C1D1): 0.219 µM·h
Mean Dose Normalized AUC0-last ([2]; 8 mg, C1D1): 27.4 nM·h/mg
Mean Unbound AUC0-last ([2]; 8 mg, C1D1): 0.0125 µM·h
Mean Unbound Cmax ([2]; 8 mg, C1D1): 8.6 nM
Mean t1/2 ([2]; 8 mg, C1D1): 11.4 h
Unbound AUC0-last (Table 3) ([2]; 8 mg, C1D1): 0.0117 µM·h
Unbound Cmax (Table 3) ([2]; 8 mg, C1D1): 8.6 nM
Cmax ([2]; 8 mg, C1D8 (EOI)): 242 nM
Mean Unbound Cmax ([2]; 8 mg, C1D8 (EOI)): 13.8 nM
Cmax ([2]; 8 mg, C1D15): 340 nM
Mean AUC0-last ([2]; 8 mg, C1D15): 0.466 µM·h
Mean Dose Normalized AUC0-last ([2]; 8 mg, C1D15): 58.3 nM·h/mg
Mean Unbound AUC0-last ([2]; 8 mg, C1D15): 0.0266 µM·h
Mean Unbound Cmax ([2]; 8 mg, C1D15): 19.4 nM
Mean t1/2 ([2]; 8 mg, C1D15): 10.6 h
Unbound AUC0-last (Table 3) ([2]; 8 mg, C1D15): 0.0266 µM·h
Unbound Cmax (Table 3) ([2]; 8 mg, C1D15): 20.1 nM
Cmax ([2]; 8 mg, C2D1 (EOI)): 282 nM
Mean Unbound Cmax ([2]; 8 mg, C2D1 (EOI)): 16.1 nM
Cmax ([2]; 8 mg, C3D1 (EOI)): 295 nM
Mean Unbound Cmax ([2]; 8 mg, C3D1 (EOI)): 16.8 nM
Cmax ([2]; 8 mg, C4D1 (EOI)): 208 nM
Mean Unbound Cmax ([2]; 8 mg, C4D1 (EOI)): 11.8 nM
Cmax ([2]; 10 mg 2-h IV inf, C1D1): 115 nM
Mean Accumulation Ratio (AUC0-last on D15/D1) ([2]; 10 mg 2-h inf): 1.7
Mean AUC0-last ([2]; 10 mg 2-h inf, C1D1): 0.366 µM·h
Mean Dose Normalized AUC0-last ([2]; 10 mg 2-h inf, C1D1): 36.6 nM·h/mg
Mean Unbound AUC0-last ([2]; 10 mg 2-h inf, C1D1): 0.0209 µM·h
Mean Unbound Cmax ([2]; 10 mg 2-h inf, C1D1): 6.6 nM
Mean t1/2 ([2]; 10 mg 2-h inf, C1D1): 13.5 h
Cmax ([2]; 10 mg 2-h inf, C1D15): 181 nM
Mean AUC0-last ([2]; 10 mg 2-h inf, C1D15): 0.527 µM·h
Mean Dose Normalized AUC0-last ([2]; 10 mg 2-h inf, C1D15): 52.7 nM·h/mg
Mean Unbound AUC0-last ([2]; 10 mg 2-h inf, C1D15): 0.03 µM·h
Mean Unbound Cmax ([2]; 10 mg 2-h inf, C1D15): 10.3 nM
Mean t1/2 ([2]; 10 mg 2-h inf, C1D15): 4.2 h
Cmax ([2]; 10 mg 2-h inf, C2D1): 290 nM
Mean Unbound Cmax ([2]; 10 mg 2-h inf, C2D1): 16.5 nM
Unbound AUC0-last (Table 3) ([2]; 10 mg, C1D1, N=2): 0.0142 µM·h
Unbound Cmax (Table 3) ([2]; 10 mg, C1D1, N=2): 11 nM
Cmax ([2]; 12 mg 1-h IV inf, C1D1): 396 nM
Mean AUC0-last ([2]; 12 mg, C1D1): 0.49 µM·h
Mean Dose Normalized AUC0-last ([2]; 12 mg, C1D1): 40.9 nM·h/mg
Mean Unbound AUC0-last ([2]; 12 mg, C1D1): 0.028 µM·h
Mean Unbound Cmax ([2]; 12 mg, C1D1): 22.6 nM
Mean t1/2 ([2]; 12 mg, C1D1): 8.3 h
Unbound AUC0-last (Table 3) ([2]; 12 mg, C1D1, N=2): 0.0282 µM·h
Unbound Cmax (Table 3) ([2]; 12 mg, C1D1, N=2): 22.6 nM
exposure (Cmax and AUC0-last) on C1D15 relative to C1D1 ([2]; weekly repeat dosing, 1.6 to 8 mg): about 2 fold
